Key:
A-431 [1] = assay: Antiproliferative activity against human A-431 cells assessed as cell growth inhibition at 25 uM incubated for 72 hrs by MTT assay relative to control; assay type: functional
NCI-H460 [2] = assay: Antiproliferative activity against human NCI-H460 cells assessed as cell growth inhibition incubated for 72 hrs by MTT assay; assay type: functional
BE(2)-C [3] = assay: Antiproliferative activity against human BE2C cells assessed as cell growth inhibition incubated for 72 hrs by MTT assay; assay type: functional
HT-29 [4] = assay: Antiproliferative activity against human HT-29 cells assessed as cell growth inhibition at 25 uM incubated for 72 hrs by MTT assay relative to control; assay type: functional
BE(2)-C [5] = assay: Antiproliferative activity against human BE2C cells assessed as cell growth inhibition at 25 uM incubated for 72 hrs by MTT assay relative to control; assay type: functional
NCI-H460 [6] = assay: Antiproliferative activity against human NCI-H460 cells assessed as cell growth inhibition at 25 uM incubated for 72 hrs by MTT assay relative to control; assay type: functional
[7] = Antiproliferative activity against human SJG2 cells assessed as cell growth inhibition incubated for 72 hrs by MTT assay; assay type: functional; settings: SJ-G2
A-431 [8] = assay: Antiproliferative activity against human A-431 cells assessed as cell growth inhibition incubated for 72 hrs by MTT assay; assay type: functional
U-87 MG [9] = assay: Antiproliferative activity against human U87 cells assessed as cell growth inhibition incubated for 72 hrs by MTT assay; assay type: functional, U-87MG ATCC
MIA PaCa-2 [10] = assay: Antiproliferative activity against human MIA PaCa-2 cells assessed as cell growth inhibition incubated for 72 hrs by MTT assay; assay type: functional
MIA PaCa-2 [11] = assay: Antiproliferative activity against human MIA PaCa-2 cells assessed as cell growth inhibition at 25 uM incubated for 72 hrs by MTT assay relative to control; assay type: functional
A2780 [12] = assay: Antiproliferative activity against human A2780 cells assessed as cell growth inhibition incubated for 72 hrs by MTT assay; assay type: functional
[13] = Antiproliferative activity against human SJG2 cells assessed as cell growth inhibition at 25 uM incubated for 72 hrs by MTT assay relative to control; assay type: functional; settings: SJ-G2
MCF7 [14] = assay: Antiproliferative activity against human MCF7 cells assessed as cell growth inhibition incubated for 72 hrs by MTT assay; assay type: functional
[15] = Cytotoxicity against human MCF-10A cells assessed as cell growth inhibition at 25 uM incubated for 72 hrs by MTT assay relative to control; assay type: toxicity, cell-based
DU-145 [16] = assay: Antiproliferative activity against human DU-145 cells assessed as cell growth inhibition at 25 uM incubated for 72 hrs by MTT assay relative to control; assay type: functional
[17] = Cytotoxicity against human MCF-10A cells assessed as cell growth inhibition incubated for 72 hrs by MTT assay; assay type: toxicity, cell-based
HT-29 [18] = assay: Antiproliferative activity against human HT-29 cells assessed as cell growth inhibition incubated for 72 hrs by MTT assay; assay type: functional
MCF7 [19] = assay: Antiproliferative activity against human MCF7 cells assessed as cell growth inhibition at 25 uM incubated for 72 hrs by MTT assay relative to control; assay type: functional
DU-145 [20] = assay: Antiproliferative activity against human DU-145 cells assessed as cell growth inhibition incubated for 72 hrs by MTT assay; assay type: functional
A2780 [21] = assay: Antiproliferative activity against human A2780 cells assessed as cell growth inhibition at 25 uM incubated for 72 hrs by MTT assay relative to control; assay type: functional
U-87 MG [22] = assay: Antiproliferative activity against human U87 cells assessed as cell growth inhibition at 25 uM incubated for 72 hrs by MTT assay relative to control; assay type: functional, U-87MG ATCC

| Structure (SMILES) | GI50 (NCI-H460 [2]) | GI50 (A-431 [8]) | GI50 (U-87 MG [9]) | GI50 (MIA PaCa-2 [10]) | GI50 (A2780 [12]) | GI50 (MCF7 [14]) | GI50 (HT-29 [18]) | GI50 (DU-145 [20]) | inhibition at 25 µM (A-431 [1]) | GI50 (BE(2)-C [3]) | inhibition at 25 µM (HT-29 [4]) | inhibition at 25 µM (BE(2)-C [5]) | inhibition at 25 µM (NCI-H460 [6]) | GI50 [7] | inhibition at 25 µM (MIA PaCa-2 [11]) | inhibition at 25 µM [13] | inhibition at 72 h, 25 µM [15] | inhibition at 25 µM (DU-145 [16]) | GI50 at 72 h [17] | inhibition at 25 µM (MCF7 [19]) | further results |
| --- | --- | --- | --- | --- | --- | --- | --- | --- | --- | --- | --- | --- | --- | --- | --- | --- | --- | --- | --- | --- | --- |
| O=C1NC(c2cccc(O)c2)Nc2ccccc21 (centres undefined) | 14 µM | 3.7 µM | 19 µM | 15 µM | 3 µM | 13 µM | 6.3 µM | 16 µM | > 100% | 6.4 µM | > 100% | 97% | 94% | 12 µM | 86% | > 100% | 92% | 72% | 14 µM | 66% | inhibition at 25 µM (A2780 [21]): 95%; inhibition at 25 µM (U-87 MG [22]): 65% |
| O=C1NC(c2cccc([N+](=O)[O-])c2)Nc2ccccc21 (centres undefined) | 24 µM | 20 µM | > 50 µM | 20 µM | 18 µM | 6.7 µM | 17 µM | 45 µM | 67% | 19 µM | 78% | 58% | 59% | 22 µM | 56% | 61% | 54% | 33% | 21 µM | > 100% | inhibition at 25 µM (A2780 [21]): 69%; inhibition at 25 µM (U-87 MG [22]): 20% |
| CC(C)(C)c1ccc(C2NC(=O)c3ccccc3N2)cc1 (centres undefined) | > 50 µM | > 50 µM | > 50 µM | 14 µM | 15 µM | 8.4 µM | 9.7 µM | 35 µM | 32% | 20 µM | 79% | 47% | 44% | > 50 µM | 60% | 46% | 53% | 47% | 19 µM | > 100% | inhibition at 25 µM (A2780 [21]): 63%; inhibition at 25 µM (U-87 MG [22]): 40% |
| COC(=O)c1cccc(/C=C/c2nc3ccccc3c(=O)[nH]2)c1 | 7.2 µM | 6.2 µM | 32 µM | 5.6 µM | 4.8 µM | 2.2 µM | 3.8 µM | 16 µM | 8% | 8.5 µM | 40% | 47% | 34% | 5.5 µM | 39% | 43% | 48% | 32% | 8.5 µM | 77% | inhibition at 25 µM (A2780 [21]): 16%; inhibition at 25 µM (U-87 MG [22]): 11% |
| O=C1NC(c2cccs2)Nc2ccccc21 (centres undefined) | 15 µM | 7.4 µM | 23 µM | 18 µM | 4.7 µM | 11 µM | 7.6 µM | 25 µM | > 100% | 9.3 µM | 90% | 91% | 88% | 23 µM | 74% | 60% | 84% | 57% | 15 µM | 91% | inhibition at 25 µM (A2780 [21]): 98%; inhibition at 25 µM (U-87 MG [22]): 56% |
| Cc1ccc(/C=C/c2nc(O)c3ccccc3n2)cc1 | 9.4 µM | 4 µM | 19 µM | 3.3 µM | 3.7 µM | 1.2 µM | 2.1 µM | 7.7 µM | 93% | 3.6 µM | > 100% | 82% | 69% | 13 µM | 85% | 57% | 86% | 61% | 3.8 µM | > 100% | inhibition at 25 µM (A2780 [21]): 97%; inhibition at 25 µM (U-87 MG [22]): 51% |

Now those with a lower GI50 (NCI-H460 [2]), led by results:

| GI50 (NCI-H460 [2]) | GI50 (A-431 [8]) | GI50 (U-87 MG [9]) | GI50 (MIA PaCa-2 [10]) | GI50 (A2780 [12]) | GI50 (MCF7 [14]) | GI50 (HT-29 [18]) | GI50 (DU-145 [20]) | Structure (SMILES) | inhibition at 25 µM (A-431 [1]) | GI50 (BE(2)-C [3]) | inhibition at 25 µM (HT-29 [4]) | inhibition at 25 µM (BE(2)-C [5]) | inhibition at 25 µM (NCI-H460 [6]) | GI50 [7] | inhibition at 25 µM (MIA PaCa-2 [11]) | inhibition at 25 µM [13] | inhibition at 72 h, 25 µM [15] | inhibition at 25 µM (DU-145 [16]) | GI50 at 72 h [17] | inhibition at 25 µM (MCF7 [19]) | further results |
| --- | --- | --- | --- | --- | --- | --- | --- | --- | --- | --- | --- | --- | --- | --- | --- | --- | --- | --- | --- | --- | --- |
| 3.2 µM | 2.3 µM | 2.6 µM | 3.4 µM | 2.3 µM | 4 µM | 1.6 µM | 3.1 µM | Cc1ccc(C2NC(=O)c3ccccc3N2)cc1 (centres undefined) | > 100% | 1.9 µM | > 100% | 87% | > 100% | 2.9 µM | 95% | > 100% | 100% | > 100% | 3.1 µM | 90% | inhibition at 25 µM (A2780 [21]): > 100%; inhibition at 25 µM (U-87 MG [22]): > 100% |
| 2.8 µM | 2.4 µM | 2.2 µM | 2.3 µM | 3.8 µM | 1.6 µM | 2.3 µM | 2.3 µM | O=C1NC(c2ccc(-c3ccccc3)cc2)Nc2ccccc21 (centres undefined) | > 100% | 2 µM | > 100% | 92% | > 100% | 2.6 µM | > 100% | > 100% | 98% | > 100% | 2.3 µM | > 100% | inhibition at 25 µM (A2780 [21]): > 100%; inhibition at 25 µM (U-87 MG [22]): > 100% |
| 3.2 µM | 3.1 µM | 4.7 µM | 3.2 µM | 3.1 µM | 3.6 µM | 2.9 µM | 3.3 µM | O=C1NC(c2ccc(Br)cc2)Nc2ccccc21 (centres undefined) | > 100% | 2.6 µM | > 100% | > 100% | 97% | 2.5 µM | 90% | > 100% | 95% | > 100% | 4 µM | 89% | inhibition at 25 µM (A2780 [21]): 99%; inhibition at 25 µM (U-87 MG [22]): 88% |
| 1.9 µM | 2.7 µM | 4.1 µM | 3.2 µM | 2.6 µM | 2 µM | 2.6 µM | 2.9 µM | O=C1NC(c2cccc(Br)c2)Nc2ccccc21 (centres undefined) | > 100% | 2.4 µM | > 100% | > 100% | 101% | 1.9 µM | 90% | > 100% | 99% | > 100% | 3.9 µM | 104% | inhibition at 25 µM (A2780 [21]): 99%; inhibition at 25 µM (U-87 MG [22]): 98% |
| 0.37 µM | 0.28 µM | 0.48 µM | 0.34 µM | 0.3 µM | 0.22 µM | 0.35 µM | 0.35 µM | O=c1[nH]c(/C=C/c2ccc(O)cc2)nc2ccccc12 | > 100% | 0.25 µM | > 100% | > 100% | > 100% | 0.29 µM | > 100% | > 100% | > 100% | > 100% | 0.38 µM | > 100% | inhibition at 25 µM (A2780 [21]): > 100%; inhibition at 25 µM (U-87 MG [22]): > 100% |
| 2.9 µM | 3 µM | 5 µM | 2.8 µM | 2.9 µM | 2.8 µM | 2.7 µM | 4.2 µM | O=C1NC(c2ccc3ccccc3c2)Nc2ccccc21 (centres undefined) | > 100% | 2.9 µM | > 100% | 98% | 100% | 2.8 µM | > 100% | > 100% | 99% | > 100% | 3.5 µM | 135% | inhibition at 25 µM (A2780 [21]): > 100%; inhibition at 25 µM (U-87 MG [22]): 94% |

Source: ChEMBL document CHEMBL5532698, “2,3-Dihydroquinazolin-4(1H)-ones and quinazolin-4(3H)-ones as broad-spectrum cytotoxic agents and their impact on tubulin polymerisation” (RSC Med Chem, 2024)
